Test results: ChEMBL document CHEMBL1152578, “Inhibition of ribonuclease A by nucleoside-dibasic acid conjugates” (Bioorg Med Chem, 2009)
Calls of active or inactive are those of the source. The rule behind the calls is not given here.

Columns and labels:
[1] = molecular target: T1, Ribonuclease pancreatic (Homo sapiens, UniProt P07998); assay: Inhibition of RNase A using dixon plot by spectrophotometric method
T1 sequence (P07998 whole entry): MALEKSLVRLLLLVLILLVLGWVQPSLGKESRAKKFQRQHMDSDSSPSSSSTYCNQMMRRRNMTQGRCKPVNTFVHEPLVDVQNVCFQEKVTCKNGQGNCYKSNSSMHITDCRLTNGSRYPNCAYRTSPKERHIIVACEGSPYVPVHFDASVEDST

[2] = molecular target: T2, Ribonuclease pancreatic (Homo sapiens) (UniProt P07998); assay: Inhibition of RNase A assessed as degradation of tRNA by agarose gel assay
T2 sequence (whole entry): T1 sequence (P07998 whole entry)

[3] = molecular target: T2, Ribonuclease pancreatic (Homo sapiens); assay: Inhibition of RNase A at 1.5 mM by precipitation assay

Ki [1] [µM] | Activity [2] | inhibition [3] | Structure (SMILES)
918 |  |  | Cc1cn([C@H]2C[C@H](NC(=O)CCC(=O)O)[C@@H](CO)O2)c(=O)[nH]c1=O
132 | Active | Active | Cc1cn([C@H]2C[C@H](NC(=O)C(=O)O)[C@@H](CO)O2)c(=O)[nH]c1=O
380 |  |  | Cc1cn([C@H]2C[C@H](NC(=O)CC(=O)O)[C@@H](CO)O2)c(=O)[nH]c1=O
